In EP0747380B1, “Compounds and compositions with nitrogen-containing non-basic side chains” (ELI LILLY AND COMPANY, priority 1995, dated 1996):
“And” between values parts separate entries of the source, which are not always exact repeats. Equal entries are not always repeated. Where two headings read alike, the source gives them in different places. Marks after values point to notes of the source that are not given here.

Tests used:
[1] = tested on: eosinophil peroxidase activity; assay: Uterine eosinophil peroxidase (EPO) assay, OVX rat, four day dosing regimen; settings: for Uterine EPO (Vmax): oral, daily for 4 days, OVX rats, * = significantly different than OVX control
Text: (§2) Seventy-five day old female Sprague Dawley rats (weight range of 200 to 225 g) were obtained from Charles River Laboratories (Portage, MI). The animals were either bilaterally ovariectomized (OVX) or exposed to a sham surgical procedure (Intact) at Charles River Laboratories, and then shipped after one week. Upon arrival, they were housed in metal hanging cages in groups of 3 or 4 per cage and had ad libitum access to food (calcium content approximately 0.5%) and water for one week. […] The photoperiod in the room was 12 hours light and 12 hours dark.
(§3) After a one week acclimation period (therefore, two weeks post-OVX), daily dosing with test compound was initiated. 17α-Ethynyl estradiol (EE2) (Sigma Chemical Co., St. Louis, MO), an orally available form of estrogen, or the test compound were given orally, unless otherwise stated, as a suspension in 1% carboxymethyl cellulose or dissolved in 20% cyclodextrin. Animals were dosed daily for 4 days. Following the dosing regimen, animals were weighed and anesthetized with a ketamine:xylazine (2:1, v:v) mixture. A blood sample was collected by cardiac puncture. The animals were then sacrificed by asphyxiation with CO2, the uterus was removed through a midline incision, and a wet uterine weight was determined.
(§4) Uteri were kept at 4° C until time of enzymatic analysis. The uteri were then homogenized in 50 volumes of 50 mM Tris buffer (pH - 8.0) containing 0.005% Triton X-100. Upon addition of 0.01% hydrogen peroxide and 10 mM o-phenylenediamine (final concentrations) in Tris buffer, increase in absorbance was monitored for one minute at 450 nm. […] The maximal velocity of a 15 second interval was determined over the initial, linear portion of the reaction curve.

[2] = tested on: serum cholesterol; assay: Serum cholesterol analysis, OVX rat, four day dosing regimen; assay type: in vivo, female Sprague Dawley rats; settings: for inhibition in vivo at 0.1 mg/kg / inhibition in vivo at 1 mg/kg / inhibition in vivo at 10 mg/kg: Rattus norvegicus, 96 h, read-out: Serum Cholesterol (% dec. OVX); for inhibition in vivo at 0.1 mg/kg / inhibition in vivo at 1 mg/kg / inhibition in vivo at 10 mg/kg / Serum Cholesterol (% dec. OVX): oral, daily for 4 days, OVX rats, * = significantly different than OVX control
Protocol: (§1) Animals were dosed daily for 4 days. […] A blood sample was collected by cardiac puncture.
Blood samples were allowed to clot at room temperature for 2 hours, and serum was obtained following centrifugation for 10 minutes at 3000 rpm. Serum cholesterol was determined using a Boehringer Mannheim Diagnostics high performance cholesterol assay. Briefly the cholesterol was oxidized to cholest-4-en-3-one and hydrogen peroxide. The hydrogen peroxide was then reacted with phenol and 4-aminophenazone in the presence of peroxidase to produce a p-quinone imine dye, which was read spectrophotemetrically at 500 nm. Cholesterol concentration was then calculated against a standard curve. The entire assay was automated using a Biomek Automated Workstation.

[3] = tested on: MCF-7 breast adenocarcinoma cells; assay: MCF-7 proliferation assay (tritiated thymidine incorporation); assay type: cell-based; settings: Homo sapiens, MCF7; MCF-7 cells, 48 hours with drug, tritiated thymidine pulse 4 hours; read-out: ED50 (the source's name)
Protocol: MCF-7 breast adenocarcinoma cells (ATCC HTB 22) were maintained in MEM (minimal essential medium, phenol red-free, Sigma, St. Louis, MO) supplemented with 10% fetal bovine serum (FBS) (V/V), L-glutamine (2 mM), sodium pyruvate (1 mM), HEPES {(N-[2-hydroxyethyl]piperazine-N'-[2-ethanesulfonic acid]10 mM}, non-essential amino acids and bovine insulin (1 µg/ml) (maintenance medium). Ten days prior to assay, MCF-7 cells were switched to maintenance medium supplemented with 10% dextrancoated charcoal stripped fetal bovine serum (DCC-FBS) assay medium) in place of 10% FBS to deplete internal stores of steroids. MCF-7 cells were removed from maintenance flasks using cell dissociation medium (Ca++/Mg++ free HBSS (phenol red-free) supplemented with 10 mM HEPES and 2 mM EDTA). Cells were washed twice with assay medium and adjusted to 80,000 cells/ml. […] Serial dilutions of drugs or DMSO as a diluent control were prepared in assay medium and […] to triplicate microcultures followed by 50 ml assay medium for a final volume of […]. After an additional 48 hours at 37° C in a 5% CO2 humidified incubator, microcultures were pulsed with tritiated thymidine (1 uCi/well) for 4 hours. Cultures were terminated by freezing at -70° C for 24 hours followed by thawing and harvesting of microcultures. Samples were counted by liquid scintillation.

[4] = tested on: uterus; assay: Uterine wet weight, post-menopausal (OVX) rat model, four day dosing regimen; assay type: in vivo, female Sprague Dawley rats; settings: for Uterine Weight (% inc. OVX): oral, daily for 4 days, OVX rats, * = significantly different than OVX control
Protocol: In the examples illustrating the methods, a post-menopausal model was used in which effects of different treatments upon various biological parameters were determined, including serum cholesterol concentration, uterine weight, eosinophil peroxidase activity, MCF-7 cell proliferation, and bone density.
as §1

[5] = tested on: eosinophil peroxidase activity; settings: rat, in vivo, po
Text: as §2, §3, §4

[6] = tested on: tibia density; assay: Bone density assay, OVX rat, thirty-five day dosing regimen (single photon absorptiometry of tibia); assay type: in vivo, female Sprague Dawley rats; settings: OVX rats, oral, daily for 35 days, in 20% hydroxypropyl β-cyclodextrin
Protocol: Following the General Preparation procedure described above, the rats were treated daily for 35 days (6 rats per treatment group) and sacrificed by decapitation on the 36th day. The 35 day time period was sufficient to allow maximal effect on bone density, measured as described herein. At the time of sacrifice, the uteri were removed, dissected free of extraneous tissue, and the fluid contents were expelled before determination of wet weight in order to confirm estrogen deficiency associated with complete ovariectomy. […] The uteri were then placed in 10% neutral buffered formalin to allow for subsequent histological analysis.
The right tibias were excised and scanned at the distal metaphysis 1 mm from the patellar groove with single photon absorptiometry. Results of the densitometer measurements represent a calculation of bone density as a function of the bone mineral content and bone width.
In accordance with the procedures outlined above, compounds of the present invention and EE2 in 20% hydroxypropyl β-cyclodextrin were orally administered to test animals.

SMILES	Uterine EPO (Vmax) ([1]; Dose 0.1 mg/kg)	Uterine EPO (Vmax) ([1]; Dose 1 mg/kg)	Uterine EPO (Vmax) ([1]; Dose 10 mg/kg)	inhibition in vivo at 0.1 mg/kg ([2]; Dose 0.1 mg/kg) [%]	inhibition in vivo at 1 mg/kg ([2]; Dose 1 mg/kg) [%]	inhibition in vivo at 10 mg/kg ([2]; Dose 10 mg/kg) [%]	EC50 [3] [nM]	Uterine Weight (% inc. OVX) ([4]; Dose 0.1 mg/kg) [%]	Uterine Weight (% inc. OVX) ([4]; Dose 1 mg/kg) [%]	Uterine Weight (% inc. OVX) ([4]; Dose 10 mg/kg)	further results
O=C(c1ccc(OCCN2CCCCC2=O)cc1)c1c(-c2ccc(O)cc2)sc2cc(O)ccc12 [Compound 3]	8.0	7.8	8.9	38.1	45.8	72.4	600	13.3	17.8	57.6* %	–
O=C(c1ccc(OCCN2CCCC2=O)cc1)c1c(-c2ccc(O)cc2)sc2cc(O)ccc12 [Compound 6]	3.6	1.4	3.7	33.6	52.4	67.5	–	-9	15.4	40.3* %	–
COc1ccc(-c2sc3cc(OC)ccc3c2C(=O)c2ccc(OCC(=O)N3CCCCC3)cc2)cc1 [Compound 7]	5.2	3.7	4.7	–	–	–	–	-0.5	-16.2	8.4%	–
O=C(c1ccc(OCC(=O)N2CCCC2)cc1)c1c(-c2ccc(O)cc2)sc2cc(O)ccc12 [Compound 8]	3.6 and 4.4	6.1 and 3.7	–	–	–	–	10	–	–	–	Uterine EPO (Vmax) ([1]; Dose 0.01 mg/kg): 3.5; Serum Cholesterol (% dec. OVX) ([2]; Dose 0.1 mg/kg): 25.8%; Serum Cholesterol (% dec. OVX) ([2]; Dose 1 mg/kg): 69.6* % and 39.4* %; Serum Cholesterol (% dec. OVX) ([2]; Dose 10 mg/kg): 64.5* %
O=C(c1ccc(OCC(=O)N2CCCCC2)cc1)c1c(-c2ccc(O)cc2)sc2cc(O)ccc12 [Compound 9]	2.8	3.6	32	4.2	22	74.3	10	-10.0	6.5	51.7* %	–
CCCCN(C)C(=O)COc1ccc(C(=O)c2c(-c3ccc(O)cc3)sc3cc(O)ccc23)cc1 [Compound 10]	4.3	3.1	17.0	-40	19.1	67.1	50	1.5	-6.7	38.0* %	–
CN(C)C(=O)COc1ccc(C(=O)c2c(-c3ccc(O)cc3)sc3cc(O)ccc23)cc1 [Compound 12]	3.7	6.7	122.3*	27.8	48.2	71.2	–	-7.7	15.4	60.7* %	–
O=C(c1ccc(OCCN2C(=O)CCC2=O)cc1)c1c(-c2ccc(O)cc2)sc2cc(O)ccc12 [Compound 13]	1.9	1.7	2.5	37.6	12.6	30.1	> 1000	22.2	7.2	-4.0%	–
N#CCOc1ccc(C(=O)c2c(-c3ccc(O)cc3)sc3cc(O)ccc23)cc1 [Compound 14]	3.3	2.4	–	3.3	23.7	–	0.05	18.8	14.6	–	–
CC(C#N)Oc1ccc(C(=O)c2c(-c3ccc(O)cc3)sc3cc(O)ccc23)cc1 (centres unmarked) [Compound 16]	2.3	3.9	23.4	–	–	–	0.02	–	–	–	–
O=C(NCCOc1ccc(C(=O)c2c(-c3ccc(O)cc3)sc3cc(O)ccc23)cc1)c1ccccc1 [Compound 18]	3.2	3.6	3.6	–	–	–	500	–	–	–	–
CC(=O)N(CCOc1ccc(C(=O)c2c(-c3ccc(O)cc3)sc3cc(O)ccc23)cc1)C1CCCCC1 [Compound 19]	5.4	3.7	–	14.5	–	–	0.1	7	–	–	–
O=C(NCCOc1ccc(C(=O)c2c(-c3ccc(O)cc3)sc3cc(O)ccc23)cc1)NC1CCCCC1 [Compound 20]	3.0	2.5	2.9	-27.2	-6	-15.4	0.1	-29.9	-27.4	-32.7%	–
O=C(c1ccc(OCCNC(=O)C2CCCCC2)cc1)c1c(-c2ccc(O)cc2)sc2cc(O)ccc12 [Compound 21]	3.1	2.6	2.4	–	–	–	–	–	–	–	–
CC(C)(C)C(=O)N1CCCCC1COc1ccc(C(=O)c2c(-c3ccc(O)cc3)sc3cc(O)ccc23)cc1 (centres unmarked) [Compound 22]	–	–	–	–	–	–	0.01	–	–	–	Uterine EPO (Vmax) ([5]; 0.1 mg/kg): 3.5; Uterine EPO (Vmax) ([5]; 1 mg/kg): 20.0; Uterine EPO (Vmax) ([5]; 10 mg/kg): 69.5*
CC(C)(C)C(=O)N1CCC(Oc2ccc(C(=O)c3c(-c4ccc(O)cc4)sc4cc(O)ccc34)cc2)CC1 [Compound 23]	1.6	3.8	6.7	-17.4	-5.2	–	4	-4.3	0.8	22.3%	–
CC(=O)NCCOc1ccc(C(=O)c2c(-c3ccc(O)cc3)sc3cc(O)ccc23)cc1 [Compound 26]	1.3	0.7	13.6	15.8	–	–	–	-17.5	–	–	–
C#C[C@]1(O)CC[C@H]2[C@@H]3CCc4cc(O)ccc4[C@H]3CC[C@@]21C [ethynyl estradiol, 17α-Ethynyl estradiol, reference compound]	120.0*	–	–	89.6	–	–	–	–	–	–	eosinophil infiltration into the uterus (result in words) ([1]; ovariectomized rats, measured by assay of eosinophil peroxidase activity): substantial, expected increase in eosinophil infiltration; serum cholesterol (result in words) ([2]; compared to ovariectomized control animals, four day dosing, EE2 orally at 0.1 mg/Kg/day): caused a decrease in serum cholesterol; tibia density / bone loss (result in words) [6]: prevented this loss; uterine weight (result in words) ([4]; rat, in vivo, po, 0.1 mg/kg/day): marked stimulatory action on the uterus
